The record followed here is paper PMC9596378, “Discovery and molecular basis of subtype-selective cyclophilin inhibitors” (Nature Chemical Biology, 2022).

By IC50 is commonly meant the concentration needed to halve the response being measured. Higher therefore signals weaker potency in that assay.

Structures are written as SMILES. Bounds are passed on as bounds.

For one test, the target named is CypD (Homo sapiens, UniProt P30405). Briefly: Chymotrypsin coupled prolyl-isomerase assay.
Chain of CypD (P30405 45-207): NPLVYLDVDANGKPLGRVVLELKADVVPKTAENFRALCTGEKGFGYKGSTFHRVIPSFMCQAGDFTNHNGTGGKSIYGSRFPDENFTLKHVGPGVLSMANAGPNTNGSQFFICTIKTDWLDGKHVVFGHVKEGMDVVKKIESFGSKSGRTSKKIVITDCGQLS
Conditions: not given
How it is done: Five microliters of compound pre-dissolved in 5% DMSO/assay buffer was then added to appropriate wells and incubated at 2–3 °C for 5 min. Five microliters of 0.5 mM α-chymotrypsin from bovine pancreas (Type II, lyophilized powder, Millipore-Sigma) in 20% 1 mM HCl/Assay Buffer was then added to each well and incubated at 2–3 °C for 5 min. The plate was then quickly transferred to a FLIPR Tetra High-Throughput Cellular Screening System (Molecular Devices). Using the internal liquid handling system of the FLIPR, 1 µL 0.5 mM Suc-AAPF-AMC (Chymotrypsin Substrate II, Millipore-Sigma) dissolved in 0.55 M LiCl/2,2,2-trifluoroethanol was added to each well, which was then mixed for 5 s, followed by immediate fluorescence measurements every 1 s for 330 s using a 360–380 nm excitation LED module and a 400–460 nm emission filter. […] Raw fluorescence data was analyzed by non-linear regression analysis with Prism v.9 by fitting one-phase association curves to each well. […] Rate constants calculated for each well (s^−1) were then normalized to substrate only (no prolyl-isomerase) and enzyme + substrate only controls.
`NCCOCCNC(=O)C1CCNC(=O)C=CC(=O)N2CCCC(C2)C(=O)NC(Cc2ccco2)C(=O)NCc2ccccc2C(=O)N1` (centres unmarked) [Compound A1] yielded a half-maximal inhibitory concentration (IC50) greater than 100 µM.

`NCCOCCNC(=O)C1CCNC(=O)C=CC(=O)N2CCCC(C2)C(=O)NC(Cc2ccco2)C(=O)Nc2ccccc2CC(=O)N1` (centres unmarked) [Compound A2] came in with an IC50 greater than 100 µM.

With `NCCOCCNC(=O)C1CCNC(=O)C=CC(=O)N2CCCC(C2)C(=O)NC(Cc2ccco2)C(=O)NC2C=CC(C2)C(=O)N1` (centres unmarked) [Compound A4], the half-inhibitory concentration (IC50) is greater than 100 µM.

As for `NCCOCCNC(=O)C1CCNC(=O)C=CC(=O)N2CCCC(C2)C(=O)NC(Cc2ccco2)C(=O)Nc2ccccc2C(=O)N1` (centres unmarked) [Compound A6], the IC50 was greater than 100 µM.

Compound `NCCOCCNC(=O)C1CCNC(=O)C=CC(=O)N2CCCC(C2)C(=O)NC(Cc2ccco2)C(=O)NCc2ccccc2CC(=O)N1` (centres unmarked) [Compound A7] displayed an IC50 greater than 100 µM.

For `CC1NC(=O)C2CCCN(C2)C(=O)C=CC(=O)NCCC(C(=O)NCCOCCN)NC(=O)Cc2ccccc2CNC1=O` (centres unmarked) [Compound A8], the 50% inhibitory concentration (IC50) is greater than 100 µM.

`NCCOCCNC(=O)C1CCNC(=O)C=CC(=O)N2CCCC(C2)C(=O)NC(Cc2ccccc2)C(=O)NCc2ccccc2CC(=O)N1` (centres unmarked) [Compound A9] had a half-maximal inhibitory concentration (IC50) of 17 ± 6 µM.

In turn, `CC(C)CC1NC(=O)C2CCCN(C2)C(=O)C=CC(=O)NCCC(C(=O)NCCOCCN)NC(=O)Cc2ccccc2CNC1=O` (centres unmarked) [Compound A10] had a 50% inhibitory concentration (IC50) greater than 100 µM.

Consider `NCCOCCNC(=O)C1CCNC(=O)C=CC(=O)N2CCCC(C2)C(=O)NC(CC=Cc2ccccc2)C(=O)NCc2ccccc2CC(=O)N1` (centres unmarked) [Compound A11], for which it took 17 ± 4 µM to reach half-maximal inhibition (IC50).

In turn, `NCCOCCNC(=O)C1CCNC(=O)C=CC(=O)N2CCCC(C2)C(=O)NC(CC2CCCCC2)C(=O)NCc2ccccc2CC(=O)N1` (centres unmarked) [Compound A12] registered a 50% inhibitory concentration (IC50) greater than 100 µM.

For `NCCOCCNC(=O)C1CCNC(=O)C=CC(=O)N2CCCC(C2)C(=O)NC(Cc2ccc(-c3ccccc3)cc2)C(=O)NCc2ccccc2CC(=O)N1` (centres unmarked) [Compound A15], the IC50 came to 18 ± 3 µM.

`NCCOCCNC(=O)C1CCNC(=O)C=CC(=O)N2CCCC(C2)C(=O)NC(CCc2ccccc2)C(=O)NCc2ccccc2CC(=O)N1` (centres unmarked) [Compound A16] displayed an IC50 greater than 100 µM.

`NCCOCCNC(=O)C1CCNC(=O)C=CC(=O)N2CCCC(C2)C(=O)NC(Cc2cccs2)C(=O)NCc2ccccc2CC(=O)N1` (centres unmarked) [Compound A17] showed a 50% inhibitory concentration (IC50) of 14 ± 3 µM.

The compound `Cc1cccc(CC2NC(=O)C3CCCN(C3)C(=O)C=CC(=O)NCCC(C(=O)NCCOCCN)NC(=O)Cc3ccccc3CNC2=O)c1` (centres unmarked) [Compound A19] registered an IC50 of 22 ± 3 µM.

`CC(C)(C)c1ccc(CC2NC(=O)C3CCCN(C3)C(=O)C=CC(=O)NCCC(C(=O)NCCOCCN)NC(=O)Cc3ccccc3CNC2=O)cc1` (centres unmarked) [Compound A20] registered a concentration for half-maximal inhibition (IC50) of 10 ± 2 µM.

Consider `NCCOCCNC(=O)C1CCNC(=O)C=CC(=O)N2CCCC(C2)C(=O)NC(Cc2ccco2)C(=O)NCc2ccccc2CC(=O)N1` (centres unmarked) [Compound A21], for which the IC50 is greater than 100 µM.

For `NCCOCCNC(=O)C1CCNC(=O)C=CC(=O)N2CCCCC2C(=O)NC(Cc2ccco2)C(=O)NCc2ccccc2CC(=O)N1` (centres unmarked) [Compound A23], the half-inhibitory concentration (IC50) is greater than 100 µM.

On to `NCCOCCNC(=O)C1CCNC(=O)C=CC(=O)N2CCC(C2)C(=O)NC(Cc2ccco2)C(=O)NCc2ccccc2CC(=O)N1` (centres unmarked) [Compound A24], for which the IC50 was greater than 100 µM.

`NCCOCCNC(=O)C1CCNC(=O)C=CC(=O)NC2CCCC(C2)C(=O)NC(Cc2ccco2)C(=O)NCc2ccccc2CC(=O)N1` (centres unmarked) [Compound A28]: half-maximal inhibition (IC50) was put at 10 ± 2 µM.

`NCCOCCNC(=O)C1CCNC(=O)C=CC(=O)NC2CCCC(C2)C(=O)NC(Cc2ccco2)C(=O)NCc2ccccc2CC(=O)N1` (centres unmarked) [Compound A29] had a half-maximal inhibitory concentration (IC50) of 6.2 ± 0.9 µM.

Compound `NCCOCCNC(=O)C1CCNC(=O)CCC(=O)N2CCCC(C2)C(=O)NC(Cc2ccco2)C(=O)NCc2ccccc2CC(=O)N1` (centres unmarked) [Compound A30] returned an IC50 greater than 100 µM.

`CC(C)(C)CC1NC(=O)C(CC2CCCCC2)NC(=O)C2CCCN2C(=O)C=CC(=O)NCc2cccc(c2)CC(C(=O)NCCOCCN)NC1=O` (centres unmarked) [HJJJt/c]: the “CypD prolyl-isomerase inhibition (in words)” value was “no prolyl-isomerase inhibition”.

Consider `CC(C)(C)CC1NC(=O)C(Cc2ccco2)NC(=O)C2CCCN2C(=O)C=CC(=O)NCc2cccc(c2)CC(C(=O)NCCOCCN)NC1=O` (centres unmarked) [HOJJt/c], for which the “CypD prolyl-isomerase inhibition (in words)” value is reported as “no prolyl-isomerase inhibition”.

For `NC(=O)C1CCNC(=O)C=CC(=O)N2CCCC(CC(=O)NC(Cc3ccco3)C(=O)NCc3ccccc3CC(=O)N1)C2` (centres unmarked) [JOBBc-A], the IC50 is greater than 100 µM.

`NCCOCCNC(=O)C1CCNC(=O)C=CC(=O)N2CCCC(CC(=O)NC(Cc3ccco3)C(=O)NCc3ccccc3CC(=O)N1)C2` (centres unmarked) [JOBBt]: the midpoint of inhibition, the IC50, lay at 49 ± 6 µM.

In turn, `NCCOCCNC(=O)C1CCNC(=O)C=CC(=O)N2CCCC2CC(=O)NC(Cc2ccco2)C(=O)NCc2ccccc2CC(=O)N1` (centres unmarked) [JOCBt] came in with an IC50 greater than 100 µM.

As for `NC(=O)C1CCNC(=O)C=CC(=O)NC2CCC(CC2)C(=O)NC(Cc2ccco2)C(=O)NCc2ccccc2CC(=O)N1` (centres unmarked) [JOGBt-A], the IC50 was greater than 100 µM.

With `NCCOCCNC(=O)C1CNC(=O)C=CC(=O)N2CCCC(C2)C(=O)NC(Cc2ccco2)C(=O)NCc2ccccc2CC(=O)N1` (centres unmarked) [JOMAt], the IC50 was greater than 100 µM.

Consider `NCCOCCNC(=O)C1CCNC(=O)C=CC(=O)N2CCCC(C2)C(=O)NC(Cc2ccco2)C(=O)NCc2ccccc2CC(=O)N1` (centres unmarked) [JOMBc], for which the IC50 is greater than 100 µM.

`NC(=O)C1CCNC(=O)C=CC(=O)N2CCCC(C2)C(=O)NC(Cc2ccco2)C(=O)NCc2ccccc2CC(=O)N1` (centres unmarked) [JOMBt-A] yielded a 50% inhibitory concentration (IC50) of 18 ± 3 µM.

Compound `NCCCOCCOCCOCCCNC(=O)C1CCNC(=O)C=CC(=O)N2CCCC(C2)C(=O)NC(Cc2ccco2)C(=O)NCc2ccccc2CC(=O)N1` (centres unmarked) [JOMBt-D] displayed an IC50 of 5.2 ± 0.3 µM.

`NCCOCCNC(=O)C1CCCNC(=O)C=CC(=O)N2CCCC(C2)C(=O)NC(Cc2ccco2)C(=O)NCc2ccccc2CC(=O)N1` (centres unmarked) [JOMCt] yielded an IC50 greater than 100 µM.

Compound `NCCOCCNC(=O)C1CCNC(=O)Cc2ccccc2CNC(=O)C(Cc2ccco2)NC(=O)C2CCCN(C2)C(=O)C=CC(=O)N1` (centres unmarked) [JOMFc] registered an IC50 greater than 100 µM.

Turning to `NCCOCCNC(=O)C1CCNC(=O)Cc2ccccc2CNC(=O)C(Cc2ccco2)NC(=O)C2CCCN(C2)C(=O)C=CC(=O)N1` (centres unmarked) [JOMFt], the IC50 is roughly 90 µM.

The test is the same for the next values; noted with them: IC50 CypD cis, cis olefin isomer.
The compound `CC(C)(C)CC1NC(=O)C(CC2CCCCC2)NC(=O)C2CCCN2C(=O)C=CC(=O)NCc2cccc(c2)CC(C(=O)NCCOCCN)NC1=O` (centres unmarked) [HJJJt/c] gave an IC50 greater than 100 µM.

The compound `CC(C)(C)CC1NC(=O)C(Cc2ccco2)NC(=O)C2CCCN2C(=O)C=CC(=O)NCc2cccc(c2)CC(C(=O)NCCOCCN)NC1=O` (centres unmarked) [HOJJt/c] yielded an IC50 greater than 100 µM.

Regarding `NCCOCCNC(=O)C1CNC(=O)C=CC(=O)NC2CCC(CC2)C(=O)NC(Cc2ccco2)C(=O)NCc2ccccc2CC(=O)N1` (centres unmarked) [JOGA], the IC50 was greater than 100 µM.

In the case of `NCCOCCNC(=O)C1CCNC(=O)C=CC(=O)N2CCCC(C2)C(=O)NC(Cc2ccco2)C(=O)NCc2ccccc2CC(=O)N1` (centres unmarked) [JOMB], the half-maximal inhibitory concentration (IC50) is greater than 100 µM.

Staying with this test, now noted: IC50 CypD trans, trans olefin isomer.
For `CC(C)(C)CC1NC(=O)C(CC2CCCCC2)NC(=O)C2CCCN2C(=O)C=CC(=O)NCc2cccc(c2)CC(C(=O)NCCOCCN)NC1=O` (centres unmarked) [HJJJt/c], the IC50 is greater than 100 µM.

`CC(C)(C)CC1NC(=O)C(Cc2ccco2)NC(=O)C2CCCN2C(=O)C=CC(=O)NCc2cccc(c2)CC(C(=O)NCCOCCN)NC1=O` (centres unmarked) [HOJJt/c] displayed a 50% inhibitory concentration (IC50) greater than 100 µM.

`NCCOCCNC(=O)C1CNC(=O)C=CC(=O)NC2CCC(CC2)C(=O)NC(Cc2ccco2)C(=O)NCc2ccccc2CC(=O)N1` (centres unmarked) [JOGA]: the IC50 was greater than 100 µM.
